In BindingDB's records for doi:10.1006/abio.2001.5466 (Kosan Biosciences, 2002):
Several values for one entry are separate records, joined by “and”; a condition that tells them apart may be missing. Equal entries are not always repeated.

Target: T1, Promotilin (Homo sapiens, UniProt P12872)
T1 sequence (P12872 whole entry): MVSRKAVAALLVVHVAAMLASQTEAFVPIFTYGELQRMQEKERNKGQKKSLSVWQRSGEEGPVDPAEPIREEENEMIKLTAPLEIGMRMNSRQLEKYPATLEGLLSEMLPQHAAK

SMILES | Ki
CC[C@H]1OC(=O)[C@H](C)[C@@H](O[C@H]2C[C@@](C)(OC)[C@@H](O)[C@H](C)O2)[C@H](C)[C@@H](O[C@H]2O[C@@H](C)C[C@@H](N(C)C)[C@@H]2O)[C@](C)(O)C[C@@H](C)C(=O)[C@H](C)[C@@H](O)[C@]1(C)O [(3R,4S,5S,6R,7R,9R,11R,12R,13S,14R)-6-{[(2R,3S,4R,6S)-4-(dimethylamino)-3-hydroxy-6-methyloxan-2-yl]oxy}-14-ethyl-7,12,13-trihydroxy-4-{[(2R,4R,5S,6S)-5-hydroxy-4-methoxy-4,6-dimethyloxan-2-yl]oxy}-3,5,7,9,11,13-hexamethyl-1-oxacyclotetradecane-2,10-dione] | 1290 nM
CC[C@H](C)[C@H](NC(=O)[C@@H]1CCCN1C(=O)[C@@H](NC(=O)[C@@H](N)Cc1ccccc1)C(C)C)C(=O)N[C@@H](Cc1ccccc1)C(=O)N[C@H](C(=O)N[C@@H](Cc1ccc(O)cc1)C(=O)NCC(=O)N[C@@H](CCC(=O)O)C(=O)N[C@@H](CC(C)C)C(=O)N[C@@H](CCC(N)=O)C(=O)N[C@@H](CCCNC(=N)N)C(=O)N[C@@H](CCSC)C(=O)N[C@@H](CCC(N)=O)C(=O)N[C@@H](CCC(=O)O)C(=O)N[C@@H](CCCCN)C(=O)N[C@@H](CCC(=O)O)C(=O)N[C@@H](CCCNC(=N)N)C(=O)N[C@@H](CC(N)=O)C(=O)N[C@@H](CCCCN)C(=O)NCC(=O)N[C@@H](CCC(N)=O)C(=O)O)[C@@H](C)O [CAS_52906-92-0] | 5.25 nM
CC[C@H]1OC(=O)[C@H](C)[C@@H](O[C@H]2C[C@@](C)(OC)[C@@H](O)[C@H](C)O2)[C@H](C)[C@@H](O[C@@H]2O[C@H](C)C[C@H](N(C)C)[C@H]2O)[C@@]2(C)CC(C)=C(O2)[C@H](C)[C@@H](O)[C@]1(C)O [Erythromycin-A enol ether] | 19.1 nM and 47.9 nM
